Test [1] can be described thus: Luminescence Cell-Based Dose Retest to Confirm Inhibitors of Cancer Stem Cells. [Related pubchem assays (depositor defined):AID2717, AID2721]. As to conditions: Homo sapiens. The format is functional.
Test [2] in a line: cytotoxicity in HMLE control line with eGFP shRNA, dose response, counter-screen for HMLE_sh_ECad selective toxicity project, cell-based, HMLE_sh_eGFP, luminescence (AID 463074).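 Also: HMLE human mammary epithelial cells expressing control shRNA against eGFP.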 The format is functional, Homo sapiens. Background: A counterscreen serves to expose hits that act by an unwanted route or on another target.
Another test has as its system HeLa. Kind of test: HeLa cell cytotoxicity, dose response, cytotoxicity control for MITF activator project, CellTiter-Glo luminescence, cherry-pick samples (AID 540259). As to conditions: Homo sapiens. Type of test: functional, cell-based.
The next test addresses Keap1/Nrf2 (Homo sapiens, UniProt Q14145). Kind of test: Keap1-Nrf2 protein-protein interaction inhibitors, dose response, biochemical, fluorescence polarization, cherry-picked samples (AID 588683). Background: Polarisation of emitted light reports the rotation of a fluorescent probe.
A further test addresses T1, ORF 73 (Human herpesvirus 8, UniProt O40947).
T1 sequence (O40947 whole entry): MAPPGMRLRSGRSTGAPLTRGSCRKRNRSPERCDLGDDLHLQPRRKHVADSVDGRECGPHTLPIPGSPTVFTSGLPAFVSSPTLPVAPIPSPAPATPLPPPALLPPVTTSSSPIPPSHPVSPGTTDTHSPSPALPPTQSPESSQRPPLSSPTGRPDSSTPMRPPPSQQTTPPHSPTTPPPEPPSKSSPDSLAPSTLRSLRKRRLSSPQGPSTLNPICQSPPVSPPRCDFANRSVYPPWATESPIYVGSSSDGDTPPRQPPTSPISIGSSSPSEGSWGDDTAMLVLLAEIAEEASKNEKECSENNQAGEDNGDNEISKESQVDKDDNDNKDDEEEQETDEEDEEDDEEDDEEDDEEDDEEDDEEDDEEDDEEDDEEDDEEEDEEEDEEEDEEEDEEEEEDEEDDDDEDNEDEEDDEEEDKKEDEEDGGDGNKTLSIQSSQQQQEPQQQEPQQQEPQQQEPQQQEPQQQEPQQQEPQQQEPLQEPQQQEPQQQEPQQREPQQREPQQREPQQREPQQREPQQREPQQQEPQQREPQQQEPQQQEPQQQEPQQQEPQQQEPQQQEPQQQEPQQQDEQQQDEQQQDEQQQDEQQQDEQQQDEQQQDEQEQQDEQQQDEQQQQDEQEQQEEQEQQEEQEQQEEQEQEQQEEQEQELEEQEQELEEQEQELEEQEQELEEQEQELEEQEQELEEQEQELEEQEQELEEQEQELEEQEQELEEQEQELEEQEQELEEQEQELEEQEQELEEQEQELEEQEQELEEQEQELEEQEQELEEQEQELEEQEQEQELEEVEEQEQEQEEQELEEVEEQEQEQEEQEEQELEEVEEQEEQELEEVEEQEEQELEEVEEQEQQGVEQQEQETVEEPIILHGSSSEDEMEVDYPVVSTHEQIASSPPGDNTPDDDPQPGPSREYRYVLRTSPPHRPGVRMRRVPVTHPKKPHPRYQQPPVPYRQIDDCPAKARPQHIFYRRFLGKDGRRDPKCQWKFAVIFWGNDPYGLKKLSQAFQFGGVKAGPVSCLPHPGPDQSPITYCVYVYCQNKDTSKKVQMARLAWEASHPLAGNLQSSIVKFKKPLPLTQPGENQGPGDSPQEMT
Kind of test: inhibitors of C-LANA binding to LBS DNA, dose response, biochemical, fluorescence polarization, cherry-picked samples (AID 504725).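 Also: fluorescence polarization of a labeled DNA duplex reporting LANA DNA binding; potency is for inhibitors that block LANA binding to the DNA.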 Set-up: species or system Human gammaherpesvirus 8.

In another test the target is Beta-arrestin-1 (Homo sapiens, UniProt P49407). Kind of test: inhibitors of arrestin peptide binding to AP2, dose response, biochemical, cherry pick 1, beta2-adaptin appendage, flow cytometry (AID 588783). The format is functional. (In general: A flow cytometer gives signals particle by particle.)
The target in test [3] is T2, Potassium voltage-gated channel subfamily KQT member 4 (Homo sapiens, UniProt P56696). Kind of test: KCNQ4 channel modulation, potentiation or inhibition, dose response, selectivity assay for KCNQ2 activator project, thallium flux, KCNQ4-expressing cells (AID 504416). Type of test: functional, cell-based.
Test [4] addresses Potassium voltage-gated channel subfamily KQT member 2 (Rattus norvegicus, UniProt O88943). Kind of test: Mode of action assay-Dose response assay for compounds that activate KCNQ2 potassium channels on automated patch clamp. [Related pubchem assays (depositor defined):AID2239, AID2258, AID2287, AID493113]. Type of test: functional.
Test [5] deals with Potassium voltage-gated channel subfamily KQT member 2/member 3 (Rattus norvegicus, UniProt O88943+O88944). Kind of test: Mode of action assay-Dose response assay for KCNQ2 activators in the KCNQ2/KCNQ3 co-expressing cells on automated patch clamp. [Related pubchem assays (depositor defined):AID2239, AID2258, AID2287]. The format is functional.
Test [6] addresses T2, Potassium voltage-gated channel subfamily KQT member 4. Kind of test: human KCNQ4 channel current potentiation, dose response, selectivity assay for KCNQ2 activator project, automated patch clamp, CHO cells (AID 493043). Type of test: functional, cell-based.
Test [7] has as its target Beta-2 adrenergic receptor (Homo sapiens, UniProt P07550). Kind of test: beta2AR agonists driving receptor internalization, dose response, cell-based, FAP fluorogen, flow cytometry, cherry pick 1 (AID 588763). The format is functional.
A further test deals with H9c2. Kind of test: cells. The format is functional, cell-based. As to conditions: Rattus norvegicus, H9c2, Myocardium.
The next test deals with T3, Hexokinase-1 (Homo sapiens, UniProt P19367).
T3 sequence (P19367 whole entry): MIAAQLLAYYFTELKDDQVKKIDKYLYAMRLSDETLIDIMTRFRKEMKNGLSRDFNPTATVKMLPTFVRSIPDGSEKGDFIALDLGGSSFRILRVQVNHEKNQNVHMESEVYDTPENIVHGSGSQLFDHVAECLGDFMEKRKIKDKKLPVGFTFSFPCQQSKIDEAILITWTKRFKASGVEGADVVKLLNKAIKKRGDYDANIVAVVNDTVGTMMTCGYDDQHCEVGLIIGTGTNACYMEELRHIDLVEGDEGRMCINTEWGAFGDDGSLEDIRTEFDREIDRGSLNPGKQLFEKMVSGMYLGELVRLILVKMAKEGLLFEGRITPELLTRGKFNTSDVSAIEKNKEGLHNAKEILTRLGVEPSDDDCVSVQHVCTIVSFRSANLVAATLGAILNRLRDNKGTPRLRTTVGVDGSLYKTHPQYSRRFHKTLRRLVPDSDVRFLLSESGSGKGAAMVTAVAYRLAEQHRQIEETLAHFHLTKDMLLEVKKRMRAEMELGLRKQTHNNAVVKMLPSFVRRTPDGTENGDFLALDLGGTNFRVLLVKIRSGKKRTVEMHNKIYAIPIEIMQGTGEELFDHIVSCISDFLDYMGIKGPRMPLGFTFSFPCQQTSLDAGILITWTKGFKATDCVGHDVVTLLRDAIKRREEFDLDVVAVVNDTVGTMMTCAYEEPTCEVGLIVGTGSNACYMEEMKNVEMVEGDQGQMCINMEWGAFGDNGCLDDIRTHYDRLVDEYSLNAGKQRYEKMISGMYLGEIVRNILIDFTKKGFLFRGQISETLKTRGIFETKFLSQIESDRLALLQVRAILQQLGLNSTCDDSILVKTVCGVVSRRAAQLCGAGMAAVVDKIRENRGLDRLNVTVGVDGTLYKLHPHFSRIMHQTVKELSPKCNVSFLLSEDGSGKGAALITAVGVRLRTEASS
Kind of test: SAR analysis of small molecule inhibitors of hexokinase domain containing I (HKDC1) in the hexokinase 1 selectivity assay. [Related pubchem assays (depositor defined):AID493160, AID493190]. Type of test: functional.

In the next test the target is T4, Hexokinase HKDC1 (Homo sapiens, UniProt Q2TB90).
T4 sequence (Q2TB90 whole entry): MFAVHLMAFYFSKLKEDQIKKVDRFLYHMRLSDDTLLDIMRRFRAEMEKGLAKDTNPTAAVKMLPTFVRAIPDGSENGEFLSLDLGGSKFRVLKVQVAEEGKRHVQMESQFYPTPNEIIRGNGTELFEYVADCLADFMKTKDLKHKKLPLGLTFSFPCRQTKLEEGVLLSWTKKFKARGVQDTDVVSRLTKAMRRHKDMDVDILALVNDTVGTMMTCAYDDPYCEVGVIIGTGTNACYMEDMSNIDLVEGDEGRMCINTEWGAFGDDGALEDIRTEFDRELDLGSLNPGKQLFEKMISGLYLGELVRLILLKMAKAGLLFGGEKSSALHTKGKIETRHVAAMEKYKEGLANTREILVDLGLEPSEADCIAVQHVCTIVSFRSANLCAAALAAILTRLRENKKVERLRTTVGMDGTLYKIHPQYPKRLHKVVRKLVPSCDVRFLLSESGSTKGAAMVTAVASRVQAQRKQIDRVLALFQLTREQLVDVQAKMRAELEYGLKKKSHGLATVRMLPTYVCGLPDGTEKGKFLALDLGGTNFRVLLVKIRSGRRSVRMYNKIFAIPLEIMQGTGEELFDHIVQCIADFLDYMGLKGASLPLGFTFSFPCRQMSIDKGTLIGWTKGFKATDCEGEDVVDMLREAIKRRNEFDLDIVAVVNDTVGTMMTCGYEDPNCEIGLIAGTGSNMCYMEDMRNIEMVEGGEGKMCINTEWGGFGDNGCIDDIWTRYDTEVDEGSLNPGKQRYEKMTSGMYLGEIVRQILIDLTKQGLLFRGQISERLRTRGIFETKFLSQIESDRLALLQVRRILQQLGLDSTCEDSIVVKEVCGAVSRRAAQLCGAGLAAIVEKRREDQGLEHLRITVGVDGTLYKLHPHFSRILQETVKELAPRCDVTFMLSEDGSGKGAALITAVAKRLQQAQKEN
Kind of test: SAR analysis of small molecule inhibitors of hexokinase domain containing I (HKDC1). [Related pubchem assays (depositor defined):AID493160, AID493190]. The format is functional.

Activity calls are given as the source filed them. Unless noted, the rule behind the calls is not given here. Bounds are passed on as bounds.

T2 sequence (P56696 whole entry): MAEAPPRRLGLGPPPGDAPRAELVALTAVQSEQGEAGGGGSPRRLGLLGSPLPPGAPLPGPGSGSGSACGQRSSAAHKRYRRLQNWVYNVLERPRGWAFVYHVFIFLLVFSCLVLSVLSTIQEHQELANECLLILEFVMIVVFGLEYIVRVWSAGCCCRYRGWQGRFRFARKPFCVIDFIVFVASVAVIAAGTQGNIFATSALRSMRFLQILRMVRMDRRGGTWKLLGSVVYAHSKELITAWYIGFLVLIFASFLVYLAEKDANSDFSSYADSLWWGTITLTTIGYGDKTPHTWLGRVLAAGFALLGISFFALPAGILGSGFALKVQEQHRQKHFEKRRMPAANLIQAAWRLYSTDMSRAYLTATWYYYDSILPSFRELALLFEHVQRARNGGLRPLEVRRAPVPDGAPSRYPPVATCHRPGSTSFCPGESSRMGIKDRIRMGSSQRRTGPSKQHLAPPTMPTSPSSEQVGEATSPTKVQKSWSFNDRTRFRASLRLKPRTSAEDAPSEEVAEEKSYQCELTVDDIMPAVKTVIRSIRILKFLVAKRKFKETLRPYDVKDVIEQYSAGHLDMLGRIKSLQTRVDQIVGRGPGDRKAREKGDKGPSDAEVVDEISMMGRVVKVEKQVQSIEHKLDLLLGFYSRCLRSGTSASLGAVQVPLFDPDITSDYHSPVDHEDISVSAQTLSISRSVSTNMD
Chain of Beta-2 adrenergic receptor (P07550 whole entry): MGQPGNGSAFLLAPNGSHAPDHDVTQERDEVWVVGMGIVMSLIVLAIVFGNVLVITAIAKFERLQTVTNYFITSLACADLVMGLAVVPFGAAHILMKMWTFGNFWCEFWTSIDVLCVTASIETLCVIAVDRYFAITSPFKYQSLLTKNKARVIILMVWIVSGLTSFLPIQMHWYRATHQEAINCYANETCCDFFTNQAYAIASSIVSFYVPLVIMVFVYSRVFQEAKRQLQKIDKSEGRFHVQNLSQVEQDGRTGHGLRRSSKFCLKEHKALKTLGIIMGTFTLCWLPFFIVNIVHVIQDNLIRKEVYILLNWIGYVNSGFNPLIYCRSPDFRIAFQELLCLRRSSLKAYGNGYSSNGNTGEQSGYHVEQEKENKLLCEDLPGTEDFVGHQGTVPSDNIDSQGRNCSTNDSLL
Chain of Potassium voltage-gated channel subfamily KQT member 2 (O88943 whole entry): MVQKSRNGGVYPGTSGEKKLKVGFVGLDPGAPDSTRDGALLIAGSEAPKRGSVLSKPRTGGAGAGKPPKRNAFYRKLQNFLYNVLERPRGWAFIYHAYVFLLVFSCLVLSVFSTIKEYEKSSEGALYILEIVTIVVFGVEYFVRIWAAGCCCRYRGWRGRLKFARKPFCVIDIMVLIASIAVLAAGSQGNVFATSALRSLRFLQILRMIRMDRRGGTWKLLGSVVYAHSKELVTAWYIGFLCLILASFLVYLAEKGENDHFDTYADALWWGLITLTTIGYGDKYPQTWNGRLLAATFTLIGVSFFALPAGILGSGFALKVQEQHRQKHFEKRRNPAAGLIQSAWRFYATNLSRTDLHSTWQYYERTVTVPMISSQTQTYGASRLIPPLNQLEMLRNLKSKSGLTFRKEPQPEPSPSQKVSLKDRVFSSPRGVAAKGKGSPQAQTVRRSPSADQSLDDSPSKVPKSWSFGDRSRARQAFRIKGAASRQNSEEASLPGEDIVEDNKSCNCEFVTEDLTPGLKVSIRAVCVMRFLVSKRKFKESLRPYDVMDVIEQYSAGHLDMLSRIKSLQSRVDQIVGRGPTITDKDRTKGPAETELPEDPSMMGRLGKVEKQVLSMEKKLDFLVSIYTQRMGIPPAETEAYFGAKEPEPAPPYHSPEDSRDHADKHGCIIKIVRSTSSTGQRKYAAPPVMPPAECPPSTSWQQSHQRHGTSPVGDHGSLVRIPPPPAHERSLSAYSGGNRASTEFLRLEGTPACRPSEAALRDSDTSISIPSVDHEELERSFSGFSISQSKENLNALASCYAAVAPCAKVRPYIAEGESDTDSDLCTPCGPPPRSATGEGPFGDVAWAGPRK
Chain of Potassium voltage-gated channel subfamily KQT member 2/member 3 (O88943 whole entry): as above
Chain of Potassium voltage-gated channel subfamily KQT member 2/member 3 (O88944 whole entry): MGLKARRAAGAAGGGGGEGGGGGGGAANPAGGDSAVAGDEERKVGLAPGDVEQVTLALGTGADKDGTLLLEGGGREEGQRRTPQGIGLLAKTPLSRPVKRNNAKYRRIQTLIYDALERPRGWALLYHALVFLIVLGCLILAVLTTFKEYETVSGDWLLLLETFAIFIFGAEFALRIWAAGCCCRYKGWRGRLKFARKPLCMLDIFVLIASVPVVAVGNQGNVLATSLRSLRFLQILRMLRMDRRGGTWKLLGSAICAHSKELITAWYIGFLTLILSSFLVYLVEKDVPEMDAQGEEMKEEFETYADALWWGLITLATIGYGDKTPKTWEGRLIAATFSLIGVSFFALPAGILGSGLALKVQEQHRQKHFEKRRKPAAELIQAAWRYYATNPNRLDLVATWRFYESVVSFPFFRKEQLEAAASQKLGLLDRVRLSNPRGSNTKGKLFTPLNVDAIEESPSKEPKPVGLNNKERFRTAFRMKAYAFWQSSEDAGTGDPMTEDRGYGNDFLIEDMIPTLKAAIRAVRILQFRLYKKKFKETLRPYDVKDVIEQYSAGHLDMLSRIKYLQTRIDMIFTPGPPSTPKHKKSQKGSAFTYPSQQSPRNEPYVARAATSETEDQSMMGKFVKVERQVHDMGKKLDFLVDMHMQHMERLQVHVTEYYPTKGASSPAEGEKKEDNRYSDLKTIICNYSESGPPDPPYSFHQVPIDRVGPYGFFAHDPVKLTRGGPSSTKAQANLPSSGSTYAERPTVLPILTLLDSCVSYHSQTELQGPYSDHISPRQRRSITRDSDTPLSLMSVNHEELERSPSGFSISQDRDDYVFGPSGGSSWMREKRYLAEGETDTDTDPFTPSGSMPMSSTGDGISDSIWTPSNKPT
Chain of Keap1/Nrf2 (Q16236 whole entry): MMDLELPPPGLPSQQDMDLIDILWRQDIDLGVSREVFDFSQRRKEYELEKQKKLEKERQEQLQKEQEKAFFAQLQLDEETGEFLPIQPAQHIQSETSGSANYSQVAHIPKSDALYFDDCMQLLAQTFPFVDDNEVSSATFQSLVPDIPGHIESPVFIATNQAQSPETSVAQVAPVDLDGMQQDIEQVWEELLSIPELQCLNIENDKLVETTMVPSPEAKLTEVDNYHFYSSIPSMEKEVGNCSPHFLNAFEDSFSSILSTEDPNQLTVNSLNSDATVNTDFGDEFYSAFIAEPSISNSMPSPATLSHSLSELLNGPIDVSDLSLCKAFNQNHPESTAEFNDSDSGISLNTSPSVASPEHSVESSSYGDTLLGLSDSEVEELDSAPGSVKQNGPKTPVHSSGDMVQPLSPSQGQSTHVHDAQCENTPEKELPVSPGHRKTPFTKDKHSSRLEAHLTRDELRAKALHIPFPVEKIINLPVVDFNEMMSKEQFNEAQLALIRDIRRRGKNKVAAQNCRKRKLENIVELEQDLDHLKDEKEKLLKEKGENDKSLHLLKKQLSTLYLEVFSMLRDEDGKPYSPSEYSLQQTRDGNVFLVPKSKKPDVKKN
Chain of Keap1/Nrf2 (Q14145 whole entry): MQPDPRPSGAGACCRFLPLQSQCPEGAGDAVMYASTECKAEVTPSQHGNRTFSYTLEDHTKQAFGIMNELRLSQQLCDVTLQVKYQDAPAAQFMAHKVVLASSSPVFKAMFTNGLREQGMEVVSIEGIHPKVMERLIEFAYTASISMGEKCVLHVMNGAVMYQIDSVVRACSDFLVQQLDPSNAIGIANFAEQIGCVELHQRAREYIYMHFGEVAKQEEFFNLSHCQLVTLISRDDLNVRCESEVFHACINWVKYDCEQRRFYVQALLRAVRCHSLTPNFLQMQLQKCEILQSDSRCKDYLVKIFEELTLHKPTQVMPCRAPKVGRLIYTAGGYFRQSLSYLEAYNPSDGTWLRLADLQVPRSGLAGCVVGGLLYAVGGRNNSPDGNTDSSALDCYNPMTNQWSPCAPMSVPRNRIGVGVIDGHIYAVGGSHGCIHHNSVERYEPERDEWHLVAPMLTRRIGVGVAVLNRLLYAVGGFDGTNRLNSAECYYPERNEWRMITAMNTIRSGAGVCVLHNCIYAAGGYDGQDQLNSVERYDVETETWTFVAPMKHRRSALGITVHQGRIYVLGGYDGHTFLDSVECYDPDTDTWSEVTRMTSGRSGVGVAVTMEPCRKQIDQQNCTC
Chain of Beta-arrestin-1 (P49407 whole entry): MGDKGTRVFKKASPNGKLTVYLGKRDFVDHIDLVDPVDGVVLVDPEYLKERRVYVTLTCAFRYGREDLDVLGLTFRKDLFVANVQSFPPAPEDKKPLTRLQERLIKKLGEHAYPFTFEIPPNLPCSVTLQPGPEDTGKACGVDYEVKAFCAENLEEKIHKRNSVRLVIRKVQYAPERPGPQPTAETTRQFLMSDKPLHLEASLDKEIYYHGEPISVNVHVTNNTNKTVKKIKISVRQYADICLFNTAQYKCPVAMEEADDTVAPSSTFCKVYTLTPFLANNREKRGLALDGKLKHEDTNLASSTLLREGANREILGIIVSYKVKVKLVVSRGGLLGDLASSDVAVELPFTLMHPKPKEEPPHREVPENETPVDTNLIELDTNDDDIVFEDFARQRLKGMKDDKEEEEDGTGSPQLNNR

A word on the AC50: it is the concentration at which the activity in the assay is half-maximal. For the compound `O=C(CSc1nc(-c2ccco2)cc(C(F)(F)F)n1)Nc1ccccc1C(F)(F)F`, the results for the AC50 in test [1] and in [2] were 5.71 µM (active) and 23.1 µM (active), respectively.

With `O=C(c1cccs1)N1CCn2c1nc1ccccc12`, in the test on HeLa, the AC50 is 115 µM (active).

`Fc1ccc(C2=CC(c3ccc(Br)o3)n3ncnc3N2)cc1` (centres undefined): the half-maximal activity concentration (AC50) is 24 µM (active) at Keap1/Nrf2 and 10.8 µM (active) at ORF 73.

One may read the IC50 as the concentration that inhibits the measured activity by half. On to `Cc1ccc(C2Nc3cccc4cccc(c34)N2)s1`, for which, on Beta-arrestin-1, the IC50 is 15.3 µM (inactive).

What is called EC50 is the concentration that produces a half-maximal response. Regarding `Cc1cc(C)c(NC(=O)CC(C)(C)C)c(Cl)c1`, the 50% effective concentration (EC50) was 8.78 µM (active) in test [3], 0.867 µM (active) in [4], 0.625 µM (active) in test [5] and 15.3 µM (active) in [6].

Turning to `CC(=O)Nc1ccc(S(=O)(=O)N(Cc2ccco2)Cc2cc3ccccc3nc2O)cc1`, in [7], the EC50 is 0.00464 µM (active). Also, in the test on H9c2, the IC50 is > 79 µM (inactive).

In the case of `O=c1c2ccccc2nc(/C=C/c2cccnc2)n1Cc1cccc(F)c1`, the IC50 on Hexokinase-1 and on Hexokinase HKDC1 was > 80 µM (inactive) in each case.

(Values after ChEMBL document CHEMBL1201862, “PubChem BioAssay data set” (2004).)
